# Experimental data published in ChEMBL document CHEMBL3885881, “DrugMatrix”.
# Species: Rattus norvegicus
# Test: DrugMatrix - Regimen: Daily Repeat
# Type: toxicity, organism-based, Sprague-Dawley
# Parameters: regimen Daily Repeat, gender Male, age 6-8 weeks
# Settings: in vivo, po, route oral GAVAGE, vehicle .5 % CMC; for ABSOLUTE BASOPHIL / ABSOLUTE EOSINOPHIL / ABSOLUTE LYMPHOCYTE / ABSOLUTE MONOCYTE / ABSOLUTE SEGMENTED NEUTROPHIL / BASOPHIL / EOSINOPHIL / ERYTHROCYTE COUNT / HEMATOCRIT / HEMOGLOBIN / LEUKOCYTE COUNT / LYMPHOCYTE / MEAN CORPUSCULAR HEMOGLOBIN / MEAN CORPUSCULAR HEMOGLOBIN CONCENTRATION / MEAN CORPUSCULAR VOLUME / MONOCYTE / NEUTROPHIL / NUCLEATED RED BLOOD CELLS / PLATELET COUNT: tissue Blood; for ALANINE AMINOTRANSFERASE / ALBUMIN / ALKALINE PHOSPHATASE / ASPARTATE AMINOTRANSFERASE / BLOOD UREA NITROGEN / CARBON DIOXIDE / CHLORIDE / CHOLESTEROL / CREATINE PHOSPHOKINASE / CREATININE / GLUCOSE / LACTATE DEHYDROGENASE / LIPASE / PHOSPHORUS / POTASSIUM / SODIUM / TOTAL BILIRUBIN / TOTAL PROTEIN / URIC ACID: tissue Plasma
# [1] = 80 mg/kg, 72 h, dose level Low, time 3 day
# [2] = 80 mg/kg, 120 h, dose level Low, time 5 day
# [3] = 1500 mg/kg, 72 h, dose level High, time 3 day
# [4] = 1500 mg/kg, 120 h, dose level High, time 5 day
structure (smiles),measurement,setting,value
Cc1cc(=O)n(-c2ccccc2)n1C [ANTIPYRINE],ABSOLUTE BASOPHIL,[1],0 CELLS/uL
same,ABSOLUTE EOSINOPHIL,[1],91.33 CELLS/uL
same,ABSOLUTE LYMPHOCYTE,[1],12252 CELLS/uL
same,ABSOLUTE MONOCYTE,[1],196 CELLS/uL
same,ABSOLUTE SEGMENTED NEUTROPHIL,[1],1827.33 CELLS/uL
same,BASOPHIL,[1],0%
same,EOSINOPHIL,[1],0.67%
same,ERYTHROCYTE COUNT,[1],5.35 x10E6/uL
same,HEMATOCRIT,[1],34.23%
same,HEMOGLOBIN,[1],13.5 G/DL
same,LEUKOCYTE COUNT,[1],14.37 x10E3/uL
same,LYMPHOCYTE,[1],86%
same,MEAN CORPUSCULAR HEMOGLOBIN,[1],25.27 pg
same,MEAN CORPUSCULAR HEMOGLOBIN CONCENTRATION,[1],39.43 G/DL
same,MEAN CORPUSCULAR VOLUME,[1],64 fL
same,MONOCYTE,[1],1.33%
same,NEUTROPHIL,[1],12%
same,NUCLEATED RED BLOOD CELLS,[1],0.33 /100WBC
same,PLATELET COUNT,[1],1283.67 x10E3/uL
same,ALANINE AMINOTRANSFERASE,[1],47.67 u/L
same,ALBUMIN,[1],4.47 G/DL
same,ALKALINE PHOSPHATASE,[1],419 u/L
same,ASPARTATE AMINOTRANSFERASE,[1],82 u/L
same,BLOOD UREA NITROGEN,[1],18 mg/dL
same,CARBON DIOXIDE,[1],23.33 mmol/L
same,CHLORIDE,[1],103.67 MEQ/L
same,CHOLESTEROL,[1],77 mg/dL
same,CREATINE PHOSPHOKINASE,[1],225 u/L
same,CREATININE,[1],0.22 mg/dL
same,GLUCOSE,[1],163 mg/dL
same,LACTATE DEHYDROGENASE,[1],184 u/L
same,LIPASE,[1],9.67 u/L
same,PHOSPHORUS,[1],13.9 mg/dL
same,POTASSIUM,[1],7.07 MEQ/L
same,SODIUM,[1],147.1 MEQ/L
same,TOTAL BILIRUBIN,[1],0.27 mg/dL
same,TOTAL PROTEIN,[1],6.23 G/DL
same,URIC ACID,[1],1.77 mg/dL
same,ABSOLUTE BASOPHIL,[2],0 CELLS/uL
same,ABSOLUTE EOSINOPHIL,[2],104 CELLS/uL
same,ABSOLUTE LYMPHOCYTE,[2],12025 CELLS/uL
same,ABSOLUTE MONOCYTE,[2],0 CELLS/uL
same,ABSOLUTE SEGMENTED NEUTROPHIL,[2],871 CELLS/uL
same,BASOPHIL,[2],0%
same,EOSINOPHIL,[2],0.67%
same,ERYTHROCYTE COUNT,[2],5.47 x10E6/uL
same,HEMATOCRIT,[2],35.87%
same,HEMOGLOBIN,[2],13.93 G/DL
same,LEUKOCYTE COUNT,[2],13 x10E3/uL
same,LYMPHOCYTE,[2],92.33%
same,MEAN CORPUSCULAR HEMOGLOBIN,[2],25.53 pg
same,MEAN CORPUSCULAR HEMOGLOBIN CONCENTRATION,[2],38.9 G/DL
same,MEAN CORPUSCULAR VOLUME,[2],65.6 fL
same,MONOCYTE,[2],0%
same,NEUTROPHIL,[2],7%
same,NUCLEATED RED BLOOD CELLS,[2],0.33 /100WBC
same,PLATELET COUNT,[2],1274.33 x10E3/uL
same,ALANINE AMINOTRANSFERASE,[2],48 u/L
same,ALBUMIN,[2],4.27 G/DL
same,ALKALINE PHOSPHATASE,[2],367.33 u/L
same,ASPARTATE AMINOTRANSFERASE,[2],83 u/L
same,BLOOD UREA NITROGEN,[2],15.67 mg/dL
same,CARBON DIOXIDE,[2],26.33 mmol/L
same,CHLORIDE,[2],101 MEQ/L
same,CHOLESTEROL,[2],76.33 mg/dL
same,CREATINE PHOSPHOKINASE,[2],353 u/L
same,CREATININE,[2],0.16 mg/dL
same,GLUCOSE,[2],179.67 mg/dL
same,LACTATE DEHYDROGENASE,[2],147.67 u/L
same,LIPASE,[2],8.67 u/L
same,PHOSPHORUS,[2],12.13 mg/dL
same,POTASSIUM,[2],7.07 MEQ/L
same,SODIUM,[2],141.77 MEQ/L
same,TOTAL BILIRUBIN,[2],0.13 mg/dL
same,TOTAL PROTEIN,[2],5.97 G/DL
same,URIC ACID,[2],2.27 mg/dL
same,ABSOLUTE BASOPHIL,[3],0 CELLS/uL
same,ABSOLUTE EOSINOPHIL,[3],55 CELLS/uL
same,ABSOLUTE LYMPHOCYTE,[3],14551 CELLS/uL
same,ABSOLUTE MONOCYTE,[3],220 CELLS/uL
same,ABSOLUTE SEGMENTED NEUTROPHIL,[3],1207.33 CELLS/uL
same,BASOPHIL,[3],0%
same,EOSINOPHIL,[3],0.33%
same,ERYTHROCYTE COUNT,[3],5.53 x10E6/uL
same,HEMATOCRIT,[3],35.67%
same,HEMOGLOBIN,[3],14.13 G/DL
same,LEUKOCYTE COUNT,[3],16.03 x10E3/uL
same,LYMPHOCYTE,[3],90.67%
same,MEAN CORPUSCULAR HEMOGLOBIN,[3],25.6 pg
same,MEAN CORPUSCULAR HEMOGLOBIN CONCENTRATION,[3],39.63 G/DL
same,MEAN CORPUSCULAR VOLUME,[3],64.5 fL
same,MONOCYTE,[3],1.33%
same,NEUTROPHIL,[3],7.67%
same,NUCLEATED RED BLOOD CELLS,[3],0.33 /100WBC
same,PLATELET COUNT,[3],1257 x10E3/uL
same,ALANINE AMINOTRANSFERASE,[3],71 u/L
same,ALBUMIN,[3],4.27 G/DL
same,ALKALINE PHOSPHATASE,[3],404.67 u/L
same,ASPARTATE AMINOTRANSFERASE,[3],85 u/L
same,BLOOD UREA NITROGEN,[3],14 mg/dL
same,CARBON DIOXIDE,[3],37 mmol/L
same,CHLORIDE,[3],99.33 MEQ/L
same,CHOLESTEROL,[3],76 mg/dL
same,CREATINE PHOSPHOKINASE,[3],183.33 u/L
same,CREATININE,[3],0.17 mg/dL
same,GLUCOSE,[3],141.67 mg/dL
same,LACTATE DEHYDROGENASE,[3],103.33 u/L
same,LIPASE,[3],9.67 u/L
same,PHOSPHORUS,[3],10.07 mg/dL
same,POTASSIUM,[3],6.57 MEQ/L
same,SODIUM,[3],143.77 MEQ/L
same,TOTAL BILIRUBIN,[3],0.2 mg/dL
same,TOTAL PROTEIN,[3],5.83 G/DL
same,URIC ACID,[3],1.53 mg/dL
same,ABSOLUTE BASOPHIL,[4],0 CELLS/uL
same,ABSOLUTE EOSINOPHIL,[4],0 CELLS/uL
same,ABSOLUTE LYMPHOCYTE,[4],19193.67 CELLS/uL
same,ABSOLUTE MONOCYTE,[4],792.67 CELLS/uL
same,ABSOLUTE SEGMENTED NEUTROPHIL,[4],3680.33 CELLS/uL
same,BASOPHIL,[4],0%
same,EOSINOPHIL,[4],0%
same,ERYTHROCYTE COUNT,[4],5.35 x10E6/uL
same,HEMATOCRIT,[4],35.1%
same,HEMOGLOBIN,[4],14.13 G/DL
same,LEUKOCYTE COUNT,[4],23.67 x10E3/uL
same,LYMPHOCYTE,[4],81.33%
same,MEAN CORPUSCULAR HEMOGLOBIN,[4],26.43 pg
same,MEAN CORPUSCULAR HEMOGLOBIN CONCENTRATION,[4],40.27 G/DL
same,MEAN CORPUSCULAR VOLUME,[4],65.7 fL
same,MONOCYTE,[4],3.67%
same,NEUTROPHIL,[4],15%
same,NUCLEATED RED BLOOD CELLS,[4],0.33 /100WBC
same,PLATELET COUNT,[4],1282 x10E3/uL
same,ALANINE AMINOTRANSFERASE,[4],57.67 u/L
same,ALBUMIN,[4],4.27 G/DL
same,ALKALINE PHOSPHATASE,[4],338.33 u/L
same,ASPARTATE AMINOTRANSFERASE,[4],86 u/L
same,BLOOD UREA NITROGEN,[4],16.33 mg/dL
same,CARBON DIOXIDE,[4],36 mmol/L
same,CHLORIDE,[4],103 MEQ/L
same,CHOLESTEROL,[4],72.33 mg/dL
same,CREATINE PHOSPHOKINASE,[4],309 u/L
same,CREATININE,[4],0.24 mg/dL
same,GLUCOSE,[4],135 mg/dL
same,LACTATE DEHYDROGENASE,[4],379.67 u/L
same,LIPASE,[4],10 u/L
same,PHOSPHORUS,[4],10.8 mg/dL
same,POTASSIUM,[4],7.71 MEQ/L
same,SODIUM,[4],141.33 MEQ/L
same,TOTAL BILIRUBIN,[4],0.2 mg/dL
same,TOTAL PROTEIN,[4],5.9 G/DL
same,URIC ACID,[4],1.2 mg/dL
